Assay results taken from patent publication US20210254056A1, “IDENTIFICATION AND TARGETED MODULATION OF GENE SIGNALING NETWORKS” (CAMP4 THERAPEUTICS CORPORATION, priority 2017, published 2021).

Test system: hepatocytes
Assay: RNA-seq of hepatocytes treated with Phase III failure compounds
Experimental: RNA-seq was performed to determine the effects of the compounds on hepatocytes.
Significance was determined by the criteria of FPKM≥0.5, a log 2(fold-change)≥1, and a […].

Structure (SMILES): CCC(CC)[C@H](NC(C)=O)[C@@H]1[C@H](O)[C@@H](C(=O)O)C[C@H]1NC(=N)N.O.O.O [peramivir (trihydrate), peramivir]
- RNA-seq results, gene PFKM (PFKM expression in hepatocytes): 0.02
- RNA-seq results, gene PGM1 (PGM1 expression in hepatocytes): 0.01
- RNA-seq results, gene PHGDH (PHGDH expression in hepatocytes): 0.67
- RNA-seq results, gene PHKA1 (PHKA1 expression in hepatocytes): 0.42
- RNA-seq results, gene PHKA2 (PHKA2 expression in hepatocytes): −0.03
- RNA-seq results, gene PHKB (PHKB expression in hepatocytes): −0.06
- RNA-seq results, gene PHYH (PHYH expression in hepatocytes): −0.05
- RNA-seq results, gene PIEZO1 (PIEZO1 expression in hepatocytes): 0.08
- RNA-seq results, gene PIGA (PIGA expression in hepatocytes): −0.01
- RNA-seq results, gene PIGM (PIGM expression in hepatocytes): 0.04
- RNA-seq results, gene PKD1 (PKD1 expression in hepatocytes): 0.39
- RNA-seq results, gene PKD2 (PKD2 expression in hepatocytes): −0.13
- RNA-seq results, gene PKHD1 (PKHD1 expression in hepatocytes): −0.79
- RNA-seq results, gene PKLR (PKLR expression in hepatocytes): 0.01
- RNA-seq results, gene PLA2G6 (PLA2G6 expression in hepatocytes): 0.31
- RNA-seq results, gene PLEKHM1 (PLEKHM1 expression in hepatocytes): 0.52
- RNA-seq results, gene PMVK (PMVK expression in hepatocytes): 0.33
- RNA-seq results, gene PNP (PNP expression in hepatocytes): 0.05
- RNA-seq results, gene PNPLA2 (PNPLA2 expression in hepatocytes): 0.19
- significant modulation of expression of disease genes (RNA-seq, q≤0.05, hepatocytes, genes in the value or listed in the block): significantly (q≤0.05) modulate expression of RMRP
- RNA-seq results: A1BG expression (gene A1BG, hepatocytes): 0.02
- RNA-seq results: AARS2 expression (gene AARS2, hepatocytes): 0.27
- RNA-seq results: AASS expression (gene AASS, hepatocytes): −0.12
- RNA-seq results: ABAT expression (gene ABAT, hepatocytes): −0.09
- RNA-seq results: ABCA1 expression (gene ABCA1, hepatocytes): −0.04
- RNA-seq results: ABCB4 expression (gene ABCB4, hepatocytes): 0.01
- RNA-seq results: ABCB11 expression (gene ABCB11, hepatocytes): 0.20
- RNA-seq results: ABCC2 expression (gene ABCC2, hepatocytes): 0.02
- RNA-seq results: ABCC3 expression (gene ABCC3, hepatocytes): 0.32
- RNA-seq results: ABCC6 expression (gene ABCC6, hepatocytes): 0.47
- RNA-seq results: ABCD1 expression (gene ABCD1, hepatocytes): 0.25
- RNA-seq results: ABCD3 expression (gene ABCD3, hepatocytes): −0.28
- RNA-seq results: ABCG5 expression (gene ABCG5, hepatocytes): 0.09
- RNA-seq results: ABCG8 expression (gene ABCG8, hepatocytes): 0.06
- RNA-seq results: ABHD5 expression (gene ABHD5, hepatocytes): −0.22
- RNA-seq results: ACACA expression (gene ACACA, hepatocytes): 0.04
- RNA-seq results: ACACB expression (gene ACACB, hepatocytes): 0.36
- RNA-seq results: ACAD9 expression (gene ACAD9, hepatocytes): 0.00
- RNA-seq results: ACADSB expression (gene ACADSB, hepatocytes): −0.29
- RNA-seq results: ACADVL expression (gene ACADVL, hepatocytes): 0.30
- RNA-seq results: ACOT8 expression (gene ACOT8, hepatocytes): −0.13
- RNA-seq results: ACOX2 expression (gene ACOX2, hepatocytes): −0.03
- RNA-seq results: ACOX3 expression (gene ACOX3, hepatocytes): −0.01
- RNA-seq results: ACSF3 expression (gene ACSF3, hepatocytes): 0.08
- RNA-seq results: ACSL1 expression (gene ACSL1, hepatocytes): −0.03
- RNA-seq results: ACSL3 expression (gene ACSL3, hepatocytes): −0.34
- RNA-seq results: ACTG2 expression (gene ACTG2, hepatocytes): −1.66
- RNA-seq results: ACTN1 expression (gene ACTN1, hepatocytes): −0.03
- RNA-seq results: ADA expression (gene ADA, hepatocytes): 0.16
- RNA-seq results: ADCK3 expression (gene ADCK3, hepatocytes): −0.02
- RNA-seq results: ADK expression (gene ADK, hepatocytes): −0.46
- RNA-seq results: ADSL expression (gene ADSL, hepatocytes): −0.36
- RNA-seq results: AFP expression (gene AFP, hepatocytes): −0.31
- RNA-seq results: AGK expression (gene AGK, hepatocytes): −0.24
- RNA-seq results: AGL expression (gene AGL, hepatocytes): −0.20
- RNA-seq results: AGPAT2 expression (gene AGPAT2, hepatocytes): 0.36
- RNA-seq results: AGPS expression (gene AGPS, hepatocytes): −0.31
- RNA-seq results: AGT expression (gene AGT, hepatocytes): −0.08
- RNA-seq results: AGTR1 expression (gene AGTR1, hepatocytes): −0.40
- RNA-seq results: AGXT expression (gene AGXT, hepatocytes): 0.44
- RNA-seq results: AHI1 expression (gene AHI1, hepatocytes): −0.18
- RNA-seq results: AHSG expression (gene AHSG, hepatocytes): 0.03
- RNA-seq results: AK1 expression (gene AK1, hepatocytes): −0.06
- RNA-seq results: AKR1C1 expression (gene AKR1C1, hepatocytes): −0.24
- RNA-seq results: AKR1C2 expression (gene AKR1C2, hepatocytes): 0.07
- RNA-seq results: AKR1C4 expression (gene AKR1C4, hepatocytes): −0.41
- RNA-seq results: AKR1D1 expression (gene AKR1D1, hepatocytes): −0.04
- RNA-seq results: ALAD expression (gene ALAD, hepatocytes): 0.07
- RNA-seq results: ALAS1 expression (gene ALAS1, hepatocytes): −0.13
- RNA-seq results: ALDH1B1 expression (gene ALDH1B1, hepatocytes): 0.10
- RNA-seq results: ALDH2 expression (gene ALDH2, hepatocytes): 0.07
- RNA-seq results: ALDH6A1 expression (gene ALDH6A1, hepatocytes): −0.48
- RNA-seq results: ALDOA expression (gene ALDOA, hepatocytes): 0.01
- RNA-seq results: ALDOB expression (gene ALDOB, hepatocytes): −0.08
- RNA-seq results: ALG12 expression (gene ALG12, hepatocytes): 0.02
- RNA-seq results: ALMS1 expression (gene ALMS1, hepatocytes): −0.05
- RNA-seq results: ALPL expression (gene ALPL, hepatocytes): −0.08
- RNA-seq results: AMACR expression (gene AMACR, hepatocytes): −0.17
- RNA-seq results: AMPD3 expression (gene AMPD3, hepatocytes): 0.13
- RNA-seq results: AMT expression (gene AMT, hepatocytes): 0.24
- RNA-seq results: ANGPTL3 expression (gene ANGPTL3, hepatocytes): −0.42
- RNA-seq results: ANKS4B expression (gene ANKS4B, hepatocytes): −0.06
- RNA-seq results: ANKS6 expression (gene ANKS6, hepatocytes): 0.15
- RNA-seq results: ANPEP expression (gene ANPEP, hepatocytes): 0.07
- RNA-seq results: AOC2 expression (gene AOC2, hepatocytes): 0.42
- RNA-seq results: AP3B1 expression (gene AP3B1, hepatocytes): −0.40
- RNA-seq results: APC expression (gene APC, hepatocytes): −0.20
- RNA-seq results: APOA1 expression (gene APOA1, hepatocytes): −0.02
- RNA-seq results: APOA2 expression (gene APOA2, hepatocytes): −0.52
- RNA-seq results: APOA5 expression (gene APOA5, hepatocytes): 0.13
- RNA-seq results: APOB expression (gene APOB, hepatocytes): −0.10
- RNA-seq results: APOC2 expression (gene APOC2, hepatocytes): −0.17
- RNA-seq results: APOC3 expression (gene APOC3, hepatocytes): −0.06
- RNA-seq results: APOE expression (gene APOE, hepatocytes): 0.04
- RNA-seq results: APRT expression (gene APRT, hepatocytes): 0.23
- RNA-seq results: AQP7 expression (gene AQP7, hepatocytes): −0.41
- RNA-seq results: AQP9 expression (gene AQP9, hepatocytes): −0.29
- RNA-seq results: ARG1 expression (gene ARG1, hepatocytes): 0.02
- RNA-seq results: ARG2 expression (gene ARG2, hepatocytes): −0.34
- RNA-seq results: ARL13B expression (gene ARL13B, hepatocytes): −0.24
- RNA-seq results: ARSA expression (gene ARSA, hepatocytes): 0.49
- RNA-seq results: ARSB expression (gene ARSB, hepatocytes): 0.03
- RNA-seq results: ASL expression (gene ASL, hepatocytes): 0.25
- RNA-seq results: ASNS expression (gene ASNS, hepatocytes): −0.22
- RNA-seq results: ASPA expression (gene ASPA, hepatocytes): −0.10
- RNA-seq results: ASXL1 expression (gene ASXL1, hepatocytes): 0.09
- RNA-seq results: ATG7 expression (gene ATG7, hepatocytes): −0.05
- RNA-seq results: ATIC expression (gene ATIC, hepatocytes): −0.26
- RNA-seq results: ATM expression (gene ATM, hepatocytes): 0.16
- RNA-seq results: ATP7A expression (gene ATP7A, hepatocytes): −0.27
- RNA-seq results: ATP7B expression (gene ATP7B, hepatocytes): 0.00
- RNA-seq results: ATP8B1 expression (gene ATP8B1, hepatocytes): −0.26
- RNA-seq results: B2M expression (gene B2M, hepatocytes): −0.52
- RNA-seq results: B9D2 expression (gene B9D2, hepatocytes): 0.35
- RNA-seq results: BAAT expression (gene BAAT, hepatocytes): −0.23
- RNA-seq results: BBOX1 expression (gene BBOX1, hepatocytes): −0.71
- RNA-seq results: BBS10 expression (gene BBS10, hepatocytes): −0.36
- RNA-seq results: BCHE expression (gene BCHE, hepatocytes): −0.32
- RNA-seq results: BCKDHB expression (gene BCKDHB, hepatocytes): −0.10
